Reference: ChEMBL document CHEMBL1201862, “PubChem BioAssay data set” (2004)
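Compound exposure: 48 hours, 5 concentrations, 96-well plates. GI50 is the concentration that inhibits growth by half.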 Calls of active or inactive are those of the source. No stated cut-off is given here; in the data, active = GI50 up to about 1.1 µM and inactive = higher.

Key:
Test in all cases: inhibition of tumour cell growth, NCI panel, 48 h
[1] = system: A498
[2] = system: CCRF-CEM
[3] = system: SK-MEL-5
[4] = system: NCI-H23
[5] = system: UO-31
[6] = system: UACC-62
[7] = system: MCF7
[8] = system: NCI-H226
[9] = system: SK-MEL-28
[10] = system: UACC-257
[11] = system: NCI-H522
[12] = system: M14
[13] = system: PC-3
[14] = system: RXF 393
[15] = system: SK-OV-3
[16] = system: Hs-578T
[17] = system: HCT-15
[18] = system: DU-145
[19] = system: OVCAR-5
[20] = system: SR

## CCOP(=O)(CN1CCNCCN(CP(=O)(OCC)OCC)CC1)OCC
[1]
  GI50: > 100 µM (inactive)
[2]
  GI50: > 31.6 µM (inactive)
[3]
  GI50: > 100 µM (inactive)
[4]
  GI50: > 100 µM (inactive)
[5]
  GI50: > 100 µM (inactive)
[6]
  GI50: > 100 µM (inactive)
[7]
  GI50: > 100 µM (inactive)
[8]
  GI50: > 100 µM (inactive)
[9]
  GI50: > 100 µM (inactive)
[10]
  GI50: > 100 µM (inactive)
[11]
  GI50: > 100 µM (inactive)
[12]
  GI50: > 100 µM (inactive)
[13]
  GI50: > 100 µM (inactive)
[14]
  GI50: > 100 µM (inactive)
[15]
  GI50: > 100 µM (inactive)
[16]
  GI50: > 100 µM (inactive)
[17]
  GI50: > 100 µM
[18]
  GI50: > 100 µM (inactive)
[19]
  GI50: > 100 µM (inactive)

## CCOc1cc(NC(C)=O)ccc1C(=O)NN1C(=O)C(Oc2ccccc2)C1c1ccc(O)c(OC)c1 (configuration not stated)
[20]
  GI50: 25.8 µM (inactive)
[2]
  GI50: 22.5 µM (inactive)
[3]
  GI50: 19.1 µM (inactive)
[4]
  GI50: 30.8 µM (inactive)
[5]
  GI50: 35 µM (inactive)
[7]
  GI50: 39.5 µM (inactive)
[8]
  GI50: 34.2 µM (inactive)
[9]
  GI50: 79.4 µM (inactive)
[10]
  GI50: 47 µM (inactive)
[12]
  GI50: 52.1 µM (inactive)
[13]
  GI50: 35.2 µM (inactive)
[14]
  GI50: 24.3 µM (inactive)
[15]
  GI50: > 100 µM (inactive)
[17]
  GI50: 32.8 µM
[18]
  GI50: 78 µM (inactive)
[19]
  GI50: > 100 µM (inactive)

## [N-]=[N+]=NC[C@H]1OCO[C@H](CN=[N+]=[N-])[C@@H](OCCOCCCl)[C@@H]1OCCOCCCl
[20]
  GI50: > 100 µM (inactive)
[2]
  GI50: > 100 µM (inactive)
[3]
  GI50: 57 µM (inactive)
[4]
  GI50: > 100 µM (inactive)
[5]
  GI50: 30.1 µM (inactive)
[6]
  GI50: 80 µM (inactive)
[7]
  GI50: > 100 µM (inactive)
[8]
  GI50: > 100 µM (inactive)
[9]
  GI50: > 100 µM (inactive)
[10]
  GI50: > 100 µM (inactive)
[11]
  GI50: > 100 µM (inactive)
[12]
  GI50: > 100 µM (inactive)
[13]
  GI50: > 100 µM (inactive)
[14]
  GI50: 5.66 µM (inactive)
[15]
  GI50: > 100 µM (inactive)
[16]
  GI50: 80 µM (inactive)
[17]
  GI50: > 100 µM
[18]
  GI50: > 100 µM (inactive)

## COc1cc(Cl)cc(N(O)C(C)=O)c1OCc1ccccc1
[1]
  GI50: > 100 µM (inactive)
[20]
  GI50: 44.3 µM (inactive)
[2]
  GI50: 38.1 µM (inactive)
[3]
  GI50: > 100 µM (inactive)
[4]
  GI50: > 100 µM (inactive)
[5]
  GI50: 51.8 µM (inactive)
[6]
  GI50: 49.7 µM (inactive)
[8]
  GI50: 65.8 µM (inactive)
[9]
  GI50: > 100 µM (inactive)
[10]
  GI50: > 100 µM (inactive)
[11]
  GI50: 62.1 µM (inactive)
[12]
  GI50: > 100 µM (inactive)
[14]
  GI50: > 100 µM (inactive)
[15]
  GI50: 74 µM (inactive)
[17]
  GI50: 51.4 µM
[19]
  GI50: > 100 µM (inactive)

## Cc1ccc(NC(=O)C(=O)C2C(=O)NC(=O)NC2=O)c(C)c1
[1]
  GI50: > 100 µM (inactive)
[20]
  GI50: > 100 µM (inactive)
[2]
  GI50: > 100 µM (inactive)
[3]
  GI50: > 100 µM (inactive)
[4]
  GI50: > 100 µM (inactive)
[5]
  GI50: > 100 µM (inactive)
[6]
  GI50: > 100 µM (inactive)
[8]
  GI50: 17.5 µM (inactive)
[9]
  GI50: > 100 µM (inactive)
[10]
  GI50: > 100 µM (inactive)
[11]
  GI50: > 100 µM (inactive)
[12]
  GI50: > 100 µM (inactive)
[14]
  GI50: > 100 µM (inactive)
[15]
  GI50: > 100 µM (inactive)
[17]
  GI50: > 100 µM
[19]
  GI50: > 100 µM (inactive)

## CCOC(=O)c1c(C)n(C)c2c1cc(O)c1[nH]c3c(c12)CCCC3
[2]
  GI50: 20.3 µM (inactive)
[3]
  GI50: 12.3 µM (inactive)
[4]
  GI50: 21 µM (inactive)
[5]
  GI50: 19.6 µM (inactive)
[6]
  GI50: 18.8 µM (inactive)
[7]
  GI50: 2.71 µM (inactive)
[9]
  GI50: 17.5 µM (inactive)
[10]
  GI50: 3.61 µM (inactive)
[11]
  GI50: 14 µM (inactive)
[12]
  GI50: 13.2 µM (inactive)
[13]
  GI50: 18.3 µM (inactive)
[15]
  GI50: 29.4 µM (inactive)
[16]
  GI50: 32.7 µM (inactive)
[17]
  GI50: 27.2 µM
[18]
  GI50: 22.8 µM (inactive)
[19]
  GI50: 28.8 µM (inactive)

## CN(C)CCNC1=CC(=O)c2nc3ccccc3c3ccnc1c23
[20]
  GI50: 2.25 µM (inactive)
[2]
  GI50: 3.88 µM (inactive)
[4]
  GI50: 5.56 µM (inactive)
[5]
  GI50: 3.89 µM (inactive)
[6]
  GI50: 5.31 µM (inactive)
[7]
  GI50: 3.75 µM (inactive)
[8]
  GI50: 2.04 µM (inactive)
[9]
  GI50: 11.4 µM (inactive)
[10]
  GI50: 9.62 µM (inactive)
[11]
  GI50: 2.94 µM (inactive)
[12]
  GI50: 7.6 µM (inactive)
[13]
  GI50: 3.36 µM (inactive)
[15]
  GI50: 10.1 µM (inactive)
[16]
  GI50: 4.95 µM (inactive)
[17]
  GI50: 3.23 µM
[18]
  GI50: 8.2 µM (inactive)
[19]
  GI50: 5.74 µM (inactive)

## CCOC(=O)c1c(-c2ccc(Cl)cc2)c(C#N)c(=S)n(C2OC(COC(C)=O)C(OC(C)=O)C(OC(C)=O)C2OC(C)=O)c1C (configuration not stated)
[1]
  GI50: 74 µM (inactive)
[20]
  GI50: > 100 µM (inactive)
[2]
  GI50: > 100 µM (inactive)
[3]
  GI50: > 100 µM (inactive)
[4]
  GI50: > 100 µM (inactive)
[5]
  GI50: 0.565 µM (active)
[6]
  GI50: > 100 µM (inactive)
[7]
  GI50: > 100 µM (inactive)
[8]
  GI50: > 100 µM (inactive)
[9]
  GI50: > 100 µM (inactive)
[10]
  GI50: > 100 µM (inactive)
[11]
  GI50: > 100 µM (inactive)
[12]
  GI50: > 100 µM (inactive)
[13]
  GI50: 0.759 µM (active)
[14]
  GI50: > 100 µM (inactive)
[15]
  GI50: > 100 µM (inactive)
[17]
  GI50: > 100 µM
[18]
  GI50: > 100 µM (inactive)
[19]
  GI50: > 100 µM (inactive)
